In the NIST ThermoML archive (doi:10.1016/j.fluid.2014.09.014):
Numbers after ± are expanded uncertainties.

Assay: refractive index (other wavelength) (dimensionless); xn = mol fraction of the nth substance listed
Conditions: 101 kPa, Liquid, Standard Abbe refractometry

Compound `CC(C)OC(C)C` [diisopropyl ether] + CC(C)O has a refractive index (313.15 K, Wavelength=644 nm, x1 = 0.9547) of 1.35601 ± 0.00043, a refractive index (313.15 K, Wavelength=644 nm, x1 = 0.973) of 1.3557 ± 0.00043 and a refractive index (313.15 K, Wavelength=644 nm, x1 = 0.9771) of 1.35587 ± 0.00043. For the same compound, the refractive index (313.15 K, Wavelength=644 nm, x1 = 1) was 1.35543 ± 0.00043, the refractive index (313.15 K, Wavelength=706.5 nm, x1 = 0.0277) was 1.36533 ± 0.00032 and the refractive index (313.15 K, Wavelength=706.5 nm, x1 = 0.0507) was 1.36524 ± 0.00032. For the same compound, the refractive index (313.15 K, Wavelength=706.5 nm, x1 = 0.051) was 1.3652 ± 0.00032, the refractive index (313.15 K, Wavelength=706.5 nm, x1 = 0.0717) was 1.36485 ± 0.00032 and the refractive index (313.15 K, Wavelength=706.5 nm, x1 = 0.1528) was 1.36418 ± 0.00032. For the same compound, the refractive index (313.15 K, Wavelength=706.5 nm, x1 = 0.1553) was 1.36418 ± 0.00032, the refractive index (313.15 K, Wavelength=706.5 nm, x1 = 0.1938) was 1.36394 ± 0.00033 and the refractive index (313.15 K, Wavelength=706.5 nm, x1 = 0.2029) was 1.36337 ± 0.00033. For the same compound, the refractive index (313.15 K, Wavelength=706.5 nm, x1 = 0.245) was 1.36294 ± 0.00033, the refractive index (313.15 K, Wavelength=706.5 nm, x1 = 0.297) was 1.36209 ± 0.00034 and the refractive index (313.15 K, Wavelength=706.5 nm, x1 = 0.2973) was 1.3623 ± 0.00034. The refractive index (313.15 K, Wavelength=706.5 nm, x1 = 0.3068) was 1.36204 ± 0.00034, the refractive index (313.15 K, Wavelength=706.5 nm, x1 = 0.398) was 1.36071 ± 0.00034 and the refractive index (313.15 K, Wavelength=706.5 nm, x1 = 0.4609) was 1.35999 ± 0.00035. The refractive index (313.15 K, Wavelength=706.5 nm, x1 = 0.5434) was 1.35908 ± 0.00036, the refractive index (313.15 K, Wavelength=706.5 nm, x1 = 0.6032) was 1.35834 ± 0.00037 and the refractive index (313.15 K, Wavelength=706.5 nm, x1 = 0.6371) was 1.358 ± 0.00038. For the same compound, the refractive index (313.15 K, Wavelength=706.5 nm, x1 = 0.701) was 1.35723 ± 0.00039, the refractive index (313.15 K, Wavelength=706.5 nm, x1 = 0.754) was 1.35681 ± 0.00039 and the refractive index (313.15 K, Wavelength=706.5 nm, x1 = 0.791) was 1.35641 ± 0.0004. It also gave a refractive index (313.15 K, Wavelength=706.5 nm, x1 = 0.8296) of 1.35602 ± 0.00041, a refractive index (313.15 K, Wavelength=706.5 nm, x1 = 0.8864) of 1.35589 ± 0.00042 and a refractive index (313.15 K, Wavelength=706.5 nm, x1 = 0.8903) of 1.35534 ± 0.00042. It also gave a refractive index (313.15 K, Wavelength=706.5 nm, x1 = 0.9113) of 1.3551 ± 0.00042, a refractive index (313.15 K, Wavelength=706.5 nm, x1 = 0.9547) of 1.3546 ± 0.00043 and a refractive index (313.15 K, Wavelength=706.5 nm, x1 = 0.973) of 1.35426 ± 0.00043. It also gave a refractive index (313.15 K, Wavelength=706.5 nm, x1 = 0.9771) of 1.35416 ± 0.00043, a refractive index (313.15 K, Wavelength=706.5 nm, x1 = 1) of 1.35401 ± 0.00043 and a refractive index (318.15 K, Wavelength=404.7 nm, x1 = 0.0277) of 1.37668 ± 0.00032. For the same compound, the refractive index (318.15 K, Wavelength=404.7 nm, x1 = 0.0507) was 1.37662 ± 0.00032, the refractive index (318.15 K, Wavelength=404.7 nm, x1 = 0.051) was 1.37654 ± 0.00032 and the refractive index (318.15 K, Wavelength=404.7 nm, x1 = 0.0717) was 1.37616 ± 0.00032. It also gave a refractive index (318.15 K, Wavelength=404.7 nm, x1 = 0.1528) of 1.3755 ± 0.00032, a refractive index (318.15 K, Wavelength=404.7 nm, x1 = 0.1553) of 1.3755 ± 0.00032 and a refractive index (318.15 K, Wavelength=404.7 nm, x1 = 0.1938) of 1.37525 ± 0.00033. It also gave a refractive index (318.15 K, Wavelength=404.7 nm, x1 = 0.2029) of 1.37457 ± 0.00033, a refractive index (318.15 K, Wavelength=404.7 nm, x1 = 0.245) of 1.374 ± 0.00033 and a refractive index (318.15 K, Wavelength=404.7 nm, x1 = 0.297) of 1.37308 ± 0.00034. The refractive index (318.15 K, Wavelength=404.7 nm, x1 = 0.2973) was 1.37334 ± 0.00034, the refractive index (318.15 K, Wavelength=404.7 nm, x1 = 0.3068) was 1.37306 ± 0.00034 and the refractive index (318.15 K, Wavelength=404.7 nm, x1 = 0.398) was 1.37184 ± 0.00035. The refractive index (318.15 K, Wavelength=404.7 nm, x1 = 0.4609) was 1.37087 ± 0.00035, the refractive index (318.15 K, Wavelength=404.7 nm, x1 = 0.5434) was 1.36988 ± 0.00036 and the refractive index (318.15 K, Wavelength=404.7 nm, x1 = 0.6032) was 1.36911 ± 0.00037. The refractive index (318.15 K, Wavelength=404.7 nm, x1 = 0.6371) was 1.36872 ± 0.00038, the refractive index (318.15 K, Wavelength=404.7 nm, x1 = 0.701) was 1.36791 ± 0.00039 and the refractive index (318.15 K, Wavelength=404.7 nm, x1 = 0.754) was 1.36743 ± 0.00039. The refractive index (318.15 K, Wavelength=404.7 nm, x1 = 0.791) was 1.36699 ± 0.0004, the refractive index (318.15 K, Wavelength=404.7 nm, x1 = 0.8296) was 1.36655 ± 0.00041 and the refractive index (318.15 K, Wavelength=404.7 nm, x1 = 0.8864) was 1.36644 ± 0.00042. It also gave a refractive index (318.15 K, Wavelength=404.7 nm, x1 = 0.8903) of 1.36584 ± 0.00042, a refractive index (318.15 K, Wavelength=404.7 nm, x1 = 0.9113) of 1.36554 ± 0.00042 and a refractive index (318.15 K, Wavelength=404.7 nm, x1 = 0.9547) of 1.3651 ± 0.00043. The refractive index (318.15 K, Wavelength=404.7 nm, x1 = 0.973) was 1.3647 ± 0.00043, the refractive index (318.15 K, Wavelength=404.7 nm, x1 = 0.9771) was 1.36468 ± 0.00043 and the refractive index (318.15 K, Wavelength=404.7 nm, x1 = 1) was 1.36447 ± 0.00044. For the same compound, the refractive index (318.15 K, Wavelength=435.8 nm, x1 = 0.0277) was 1.37373 ± 0.00032, the refractive index (318.15 K, Wavelength=435.8 nm, x1 = 0.0507) was 1.37367 ± 0.00032 and the refractive index (318.15 K, Wavelength=435.8 nm, x1 = 0.051) was 1.3736 ± 0.00032. The refractive index (318.15 K, Wavelength=435.8 nm, x1 = 0.0717) was 1.37322 ± 0.00032, the refractive index (318.15 K, Wavelength=435.8 nm, x1 = 0.1528) was 1.37255 ± 0.00032 and the refractive index (318.15 K, Wavelength=435.8 nm, x1 = 0.1553) was 1.37255 ± 0.00032. The refractive index (318.15 K, Wavelength=435.8 nm, x1 = 0.1938) was 1.37231 ± 0.00033, the refractive index (318.15 K, Wavelength=435.8 nm, x1 = 0.2029) was 1.37164 ± 0.00033 and the refractive index (318.15 K, Wavelength=435.8 nm, x1 = 0.245) was 1.37107 ± 0.00033. For the same compound, the refractive index (318.15 K, Wavelength=435.8 nm, x1 = 0.297) was 1.37014 ± 0.00034, the refractive index (318.15 K, Wavelength=435.8 nm, x1 = 0.2973) was 1.3704 ± 0.00034 and the refractive index (318.15 K, Wavelength=435.8 nm, x1 = 0.3068) was 1.37013 ± 0.00034. The refractive index (318.15 K, Wavelength=435.8 nm, x1 = 0.398) was 1.36891 ± 0.00035, the refractive index (318.15 K, Wavelength=435.8 nm, x1 = 0.4609) was 1.36796 ± 0.00035 and the refractive index (318.15 K, Wavelength=435.8 nm, x1 = 0.5434) was 1.36693 ± 0.00036. It also gave a refractive index (318.15 K, Wavelength=435.8 nm, x1 = 0.6032) of 1.36618 ± 0.00037, a refractive index (318.15 K, Wavelength=435.8 nm, x1 = 0.6371) of 1.36578 ± 0.00038 and a refractive index (318.15 K, Wavelength=435.8 nm, x1 = 0.701) of 1.36501 ± 0.00039. For the same compound, the refractive index (318.15 K, Wavelength=435.8 nm, x1 = 0.754) was 1.36453 ± 0.00039, the refractive index (318.15 K, Wavelength=435.8 nm, x1 = 0.791) was 1.36408 ± 0.0004 and the refractive index (318.15 K, Wavelength=435.8 nm, x1 = 0.8296) was 1.36364 ± 0.00041. For the same compound, the refractive index (318.15 K, Wavelength=435.8 nm, x1 = 0.8864) was 1.36355 ± 0.00042, the refractive index (318.15 K, Wavelength=435.8 nm, x1 = 0.8903) was 1.36294 ± 0.00042 and the refractive index (318.15 K, Wavelength=435.8 nm, x1 = 0.9113) was 1.36264 ± 0.00042. For the same compound, the refractive index (318.15 K, Wavelength=435.8 nm, x1 = 0.9547) was 1.36222 ± 0.00043, the refractive index (318.15 K, Wavelength=435.8 nm, x1 = 0.973) was 1.36182 ± 0.00043 and the refractive index (318.15 K, Wavelength=435.8 nm, x1 = 0.9771) was 1.36178 ± 0.00043. For the same compound, the refractive index (318.15 K, Wavelength=435.8 nm, x1 = 1) was 1.36157 ± 0.00044, the refractive index (318.15 K, Wavelength=486.1 nm, x1 = 0.0277) was 1.37036 ± 0.00032 and the refractive index (318.15 K, Wavelength=486.1 nm, x1 = 0.0507) was 1.3703 ± 0.00032. It also gave a refractive index (318.15 K, Wavelength=486.1 nm, x1 = 0.051) of 1.37024 ± 0.00032, a refractive index (318.15 K, Wavelength=486.1 nm, x1 = 0.0717) of 1.36986 ± 0.00032 and a refractive index (318.15 K, Wavelength=486.1 nm, x1 = 0.1528) of 1.36919 ± 0.00032. It also gave a refractive index (318.15 K, Wavelength=486.1 nm, x1 = 0.1553) of 1.36919 ± 0.00032 and a refractive index (318.15 K, Wavelength=486.1 nm, x1 = 0.1938) of 1.36894 ± 0.00033.
